Laboratory results from ChEMBL document CHEMBL1144982, “Ganglioside GM1 mimics: lipophilic substituents improve affinity for cholera toxin” (Bioorg Med Chem Lett, 2003).

assay: Dissociation constant by non-linear regression analysis; format: physicochemical

Row | SMILES | Kd [µM]
1 | CC(=O)N[C@@H]1[C@H](O[C@H]2C[C@H](C(=O)OC(C)(C)C)[C@@H](C(=O)OC(C)(C)C)C[C@H]2O[C@H](C)C(=O)O)O[C@@H](CO)[C@H](O)[C@@H]1O[C@@H]1O[C@@H](CO)[C@H](O)[C@H](O)[C@@H]1O | 190
2 | CC(=O)N[C@@H]1[C@H](O[C@H]2C[C@H](C(=O)OC(C)(C)C)[C@@H](C(=O)OC(C)(C)C)C[C@H]2O[C@H](CC2CCCCC2)C(=O)O)O[C@@H](CO)[C@H](O)[C@@H]1O[C@@H]1O[C@@H](CO)[C@H](O)[C@H](O)[C@@H]1O | 45
3 | CC(=O)N[C@@H]1[C@H](O[C@H]2C[C@H](C(=O)OC(C)(C)C)[C@@H](C(=O)OC(C)(C)C)C[C@H]2O[C@H](Cc2ccccc2)C(=O)O)O[C@@H](CO)[C@H](O)[C@@H]1O[C@@H]1O[C@@H](CO)[C@H](O)[C@H](O)[C@@H]1O | 10
